Source: PubChem BioAssay AID1259407 (Chemical Carcinogenesis Research Information System (CCRIS), 2018)
Activity calls are given as the source filed them. How the calls were made is not given here.

Test system: CCRIS mutagenicity, Ames/micronucleus/aberration tests
Test: CCRIS mutagenicity studies
[1] = Test System: AMES SALMONELLA TYPHIMURIUM, Strain/Indicator: TA98, Metabolic Activation: NONE, Method: PREINCUBATION
[2] = Test System: AMES SALMONELLA TYPHIMURIUM, Strain/Indicator: TA100, Metabolic Activation: NONE, Method: PREINCUBATION

## O=S(=O)(O)OOS(=O)(=O)O
Test System: AMES SALMONELLA TYPHIMURIUM, Strain/Indicator: TA97, Metabolic Activation: NONE, Method: PREINCUBATION
  mutagenic call: inactive; negative
Test System: AMES SALMONELLA TYPHIMURIUM, Strain/Indicator: TA97, Metabolic Activation: RAT, LIVER, S-9, AROCLOR 1254, Method: PREINCUBATION
  mutagenic call: inactive; negative
[1]
  mutagenic call: inactive; negative
Test System: AMES SALMONELLA TYPHIMURIUM, Strain/Indicator: TA98, Metabolic Activation: RAT, LIVER, S-9, KC 500, Method: PREINCUBATION
  mutagenic call: inactive; negative
[2]
  mutagenic call: inactive; negative
Test System: AMES SALMONELLA TYPHIMURIUM, Strain/Indicator: TA100, Metabolic Activation: RAT, LIVER, S-9, KC 500, Method: PREINCUBATION
  mutagenic call: inactive; negative
Test System: AMES SALMONELLA TYPHIMURIUM, Strain/Indicator: TA102, Metabolic Activation: NONE, Method: PREINCUBATION
  mutagenic call: inactive; negative
Test System: AMES SALMONELLA TYPHIMURIUM, Strain/Indicator: TA102, Metabolic Activation: RAT, LIVER, S-9, AROCLOR 1254, Method: PREINCUBATION
  mutagenic call: inactive; negative
Test System: AMES SALMONELLA TYPHIMURIUM, Strain/Indicator: TA1535, Metabolic Activation: NONE, Method: PREINCUBATION
  mutagenic call: inactive; negative
Test System: AMES SALMONELLA TYPHIMURIUM, Strain/Indicator: TA1535, Metabolic Activation: RAT, LIVER, S-9, KC 500, Method: PREINCUBATION
  mutagenic call: inactive; negative
Test System: AMES SALMONELLA TYPHIMURIUM, Strain/Indicator: TA1537, Metabolic Activation: NONE, Method: PREINCUBATION
  mutagenic call: inactive; negative
Test System: AMES SALMONELLA TYPHIMURIUM, Strain/Indicator: TA1537, Metabolic Activation: RAT, LIVER, S-9, KC 500, Method: PREINCUBATION
  mutagenic call: inactive; negative
Test System: AMES SALMONELLA TYPHIMURIUM, Strain/Indicator: TA1538, Metabolic Activation: NONE, Method: PREINCUBATION
  mutagenic call: inactive; negative
Test System: AMES SALMONELLA TYPHIMURIUM, Strain/Indicator: TA1538, Metabolic Activation: RAT, LIVER, S-9, KC 500, Method: PREINCUBATION
  mutagenic call: inactive; negative
Test System: E. COLI, Strain/Indicator: WP2 UVRA, Metabolic Activation: NONE, Method: PREINCUBATION
  mutagenic call: inactive; negative
Test System: E. COLI, Strain/Indicator: WP2 UVRA, Metabolic Activation: RAT, LIVER, S-9, KC 500, Method: PREINCUBATION
  mutagenic call: inactive; negative

## O=CC(=O)c1ccccc1
Test System: AMES SALMONELLA TYPHIMURIUM, Strain/Indicator: TA98, Metabolic Activation: HAMSTER, LIVER, S-9, AROCLOR 1254, Method: STANDARD PLATE
  mutagenic call: active; positive
[1]
  mutagenic call: inactive; negative
Test System: AMES SALMONELLA TYPHIMURIUM, Strain/Indicator: TA98, Metabolic Activation: NONE, Method: STANDARD PLATE
  mutagenic call: active; positive
Test System: AMES SALMONELLA TYPHIMURIUM, Strain/Indicator: TA98, Metabolic Activation: RAT, LIVER, S-9, AROCLOR 1254, Method: STANDARD PLATE
  mutagenic call: active; positive
Test System: AMES SALMONELLA TYPHIMURIUM, Strain/Indicator: TA98, Metabolic Activation: RAT, LIVER, S-9, PCB, Method: PREINCUBATION
  mutagenic call: inactive; negative
Test System: AMES SALMONELLA TYPHIMURIUM, Strain/Indicator: TA100, Metabolic Activation: HAMSTER, LIVER, S-9, AROCLOR 1254, Method: STANDARD PLATE
  mutagenic call: active; positive
[2]
  mutagenic call: active; positive
Test System: AMES SALMONELLA TYPHIMURIUM, Strain/Indicator: TA100, Metabolic Activation: NONE, Method: STANDARD PLATE
  mutagenic call: active; positive
Test System: AMES SALMONELLA TYPHIMURIUM, Strain/Indicator: TA100, Metabolic Activation: RAT, LIVER, S-9, AROCLOR 1254, Method: STANDARD PLATE
  mutagenic call: active; positive
Test System: AMES SALMONELLA TYPHIMURIUM, Strain/Indicator: TA100, Metabolic Activation: RAT, LIVER, S-9, PCB, Method: PREINCUBATION
  mutagenic call: inactive; negative
Test System: MOUSE LYMPHOMA, Strain/Indicator: L5178Y (TK+/TK-), Metabolic Activation: NONE, Method: SUSPENSION/PLATE
  mutagenic call: active; positive
Test System: Mouse lymphoma, Strain/Indicator: L5178Y (tk+/tk-), Metabolic Activation: None, Method: Suspension/plate
  mutagenic call: active; positive
Test System: Mouse lymphoma, Strain/Indicator: L5178Y (tk+/tk-), Metabolic Activation: Rat, Liver, S-9, Aroclor 1254, Method: Suspension/plate
  mutagenic call: inactive; negative

## COc1c2ccoc2nc2c(OC)c(OCC3OC3(C)C)ccc12 (stereo not drawn)
Test System: AMES SALMONELLA TYPHIMURIUM, Strain/Indicator: TA98, Metabolic Activation: RAT, LIVER, S-9, PHENOBARBITAL, Method: STANDARD PLATE
  mutagenic call: inactive; negative
Test System: AMES SALMONELLA TYPHIMURIUM, Strain/Indicator: TA100, Metabolic Activation: RAT, LIVER, S-9, PHENOBARBITAL, Method: STANDARD PLATE
  mutagenic call: inactive; negative

## N[C@@H](CSC(F)(F)C(F)(F)C(F)F)C(=O)O
Test System: AMES SALMONELLA TYPHIMURIUM, Strain/Indicator: TA100, Metabolic Activation: RAT, KIDNEY, S-9, AROCLOR 1254, Method: STANDARD PLATE
  mutagenic call: inactive; negative

## O=C(CCCl)N=c1sn(C(=O)CCCl)c2ccc(Cl)cc12
Test System: AMES SALMONELLA TYPHIMURIUM, Strain/Indicator: TA100, Metabolic Activation: S-9, Method: STANDARD PLATE
  mutagenic call: inactive; negative
